# Source: the kinase profiling compilation of Christmann-Franck et al. (2016)
# Tests used:
# Test in all cases: Caliper, Mobility shift assay off-chip
# [1] = target: PIM1 (human) (UniProt P11309)
# [2] = target: CSNK1G2 (human) (UniProt P78368)
# [3] = target: TEK (human) (UniProt Q02763)
# [4] = target: TNK2 (human) (UniProt Q07912)
# [5] = target: TBK1 (human) (UniProt Q9UHD2)
# [6] = target: PBK (human) (UniProt Q96KB5)
# [7] = target: AURKA (human) (UniProt O14965)
# [8] = target: ROCK1 (human) (UniProt Q13464)
# [9] = target: SLK (human) (UniProt Q9H2G2)
# [10] = target: MKNK2 (human) (UniProt Q9HBH9)
# [11] = target: KIT (human) (UniProt P10721)
# [12] = target: MKNK1 (human) (UniProt Q9BUB5)
# [13] = target: IRAK1 (human) (UniProt P51617)
# [14] = target: MAPK10 (human) (UniProt P53779)
# [15] = target: EPHA6 (human) (UniProt Q9UF33)
# [16] = target: MAP4K4 (human) (UniProt O95819)
# [17] = target: PRKD3 (human) (UniProt O94806)
# [18] = target: ALK NPM1 (human) (UniProt P06748+Q9UM73)
# [19] = target: BMX (human) (UniProt P51813)
# [20] = target: JAK2 JH1 JH2 (human) (UniProt O60674)
# [21] = target: EPHB3 (human) (UniProt P54753)
# [22] = target: HIPK3 (human) (UniProt Q9H422)
# [23] = target: MET (human) (UniProt P08581)
# [24] = target: STK24 (human) (UniProt Q9Y6E0)
# [25] = target: DCLK2 (human) (UniProt Q8N568)
# [26] = target: RPS6KA3 KD1 KD2 (human) (UniProt P51812)
# [27] = target: CDC42BPA (human) (UniProt Q5VT25)
# [28] = target: LATS2 (human) (UniProt Q9NRM7)
# [29] = target: PRKCH (human) (UniProt P24723)
# [30] = target: STK10 (human) (UniProt O94804)
# [31] = target: MST4 (human) (UniProt Q9P289)
# [32] = target: CAMK4 (human) (UniProt Q16566)
# [33] = target: FGFR2 (human) (UniProt P21802)
# Sequence of MKNK2 (human) (Q9HBH9 whole entry, looked up): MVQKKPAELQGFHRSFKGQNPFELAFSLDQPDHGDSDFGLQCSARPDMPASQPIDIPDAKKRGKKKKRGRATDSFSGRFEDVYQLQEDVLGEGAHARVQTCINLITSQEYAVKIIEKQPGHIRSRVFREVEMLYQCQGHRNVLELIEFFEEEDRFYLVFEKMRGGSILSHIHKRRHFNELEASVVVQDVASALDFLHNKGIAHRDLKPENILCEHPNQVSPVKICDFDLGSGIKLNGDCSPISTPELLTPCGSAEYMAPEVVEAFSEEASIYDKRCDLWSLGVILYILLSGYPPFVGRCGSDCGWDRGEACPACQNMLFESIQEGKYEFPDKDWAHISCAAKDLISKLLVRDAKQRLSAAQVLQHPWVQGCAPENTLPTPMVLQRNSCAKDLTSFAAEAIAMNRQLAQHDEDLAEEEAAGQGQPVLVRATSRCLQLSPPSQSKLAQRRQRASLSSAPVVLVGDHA
# Sequence of AURKA (human) (O14965 whole entry, looked up): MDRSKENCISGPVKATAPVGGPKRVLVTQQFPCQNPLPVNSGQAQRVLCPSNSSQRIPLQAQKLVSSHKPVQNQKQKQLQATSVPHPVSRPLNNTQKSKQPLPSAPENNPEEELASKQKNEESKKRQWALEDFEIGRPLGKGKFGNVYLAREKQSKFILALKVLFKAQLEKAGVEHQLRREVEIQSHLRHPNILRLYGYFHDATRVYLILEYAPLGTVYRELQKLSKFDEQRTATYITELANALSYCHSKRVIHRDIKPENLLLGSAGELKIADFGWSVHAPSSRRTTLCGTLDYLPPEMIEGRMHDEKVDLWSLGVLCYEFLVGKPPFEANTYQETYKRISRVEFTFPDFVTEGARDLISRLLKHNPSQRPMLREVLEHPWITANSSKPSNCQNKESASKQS
# Sequence of TEK (human) (Q02763 whole entry, looked up): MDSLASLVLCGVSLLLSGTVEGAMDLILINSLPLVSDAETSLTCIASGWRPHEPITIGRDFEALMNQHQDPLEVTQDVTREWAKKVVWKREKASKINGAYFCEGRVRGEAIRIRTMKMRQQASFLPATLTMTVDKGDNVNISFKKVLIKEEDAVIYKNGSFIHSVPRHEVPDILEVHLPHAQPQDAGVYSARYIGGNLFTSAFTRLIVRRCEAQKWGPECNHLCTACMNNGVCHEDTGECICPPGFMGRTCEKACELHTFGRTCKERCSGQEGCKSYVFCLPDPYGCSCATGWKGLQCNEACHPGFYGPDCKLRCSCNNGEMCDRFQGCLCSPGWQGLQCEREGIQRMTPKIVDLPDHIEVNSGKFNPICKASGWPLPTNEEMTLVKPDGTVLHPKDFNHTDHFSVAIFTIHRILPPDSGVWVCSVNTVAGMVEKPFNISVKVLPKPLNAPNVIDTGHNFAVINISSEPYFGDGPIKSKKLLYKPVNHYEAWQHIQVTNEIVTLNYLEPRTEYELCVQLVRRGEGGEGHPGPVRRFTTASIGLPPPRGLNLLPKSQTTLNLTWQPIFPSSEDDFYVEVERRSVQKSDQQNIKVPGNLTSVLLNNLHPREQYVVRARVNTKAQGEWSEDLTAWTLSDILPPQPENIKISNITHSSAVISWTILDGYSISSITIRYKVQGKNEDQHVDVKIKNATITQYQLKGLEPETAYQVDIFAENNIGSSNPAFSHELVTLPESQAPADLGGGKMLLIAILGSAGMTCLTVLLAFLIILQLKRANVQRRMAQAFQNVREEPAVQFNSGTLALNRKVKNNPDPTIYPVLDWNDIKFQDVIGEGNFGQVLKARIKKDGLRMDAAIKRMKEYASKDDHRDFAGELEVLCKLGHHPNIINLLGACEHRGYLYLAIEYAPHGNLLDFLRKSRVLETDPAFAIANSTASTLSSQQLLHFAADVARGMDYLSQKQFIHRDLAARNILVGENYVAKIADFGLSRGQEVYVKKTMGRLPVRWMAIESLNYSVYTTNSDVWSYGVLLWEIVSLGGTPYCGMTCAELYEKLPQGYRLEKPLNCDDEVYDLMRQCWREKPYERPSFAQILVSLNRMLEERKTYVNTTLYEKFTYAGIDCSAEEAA
# Sequence of BMX (human) (P51813 whole entry, looked up): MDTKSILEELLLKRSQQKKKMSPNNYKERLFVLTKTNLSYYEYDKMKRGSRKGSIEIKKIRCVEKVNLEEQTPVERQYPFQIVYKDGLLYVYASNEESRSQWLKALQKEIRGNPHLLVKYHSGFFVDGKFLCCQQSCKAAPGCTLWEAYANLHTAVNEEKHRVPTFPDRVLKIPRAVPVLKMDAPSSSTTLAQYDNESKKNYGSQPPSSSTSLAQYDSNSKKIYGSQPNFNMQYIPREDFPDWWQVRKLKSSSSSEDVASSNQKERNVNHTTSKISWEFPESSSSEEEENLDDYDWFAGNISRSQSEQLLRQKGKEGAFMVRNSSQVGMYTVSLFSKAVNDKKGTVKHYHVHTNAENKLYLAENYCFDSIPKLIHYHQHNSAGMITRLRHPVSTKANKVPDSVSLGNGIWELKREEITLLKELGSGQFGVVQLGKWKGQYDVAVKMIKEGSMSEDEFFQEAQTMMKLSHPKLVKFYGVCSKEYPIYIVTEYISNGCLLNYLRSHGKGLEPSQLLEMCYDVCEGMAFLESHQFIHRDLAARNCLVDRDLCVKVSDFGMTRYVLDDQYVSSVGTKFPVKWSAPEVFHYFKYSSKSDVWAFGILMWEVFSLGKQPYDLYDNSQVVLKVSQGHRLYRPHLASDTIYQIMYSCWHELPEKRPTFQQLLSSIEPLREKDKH
# Sequence of KIT (human) (P10721 whole entry, looked up): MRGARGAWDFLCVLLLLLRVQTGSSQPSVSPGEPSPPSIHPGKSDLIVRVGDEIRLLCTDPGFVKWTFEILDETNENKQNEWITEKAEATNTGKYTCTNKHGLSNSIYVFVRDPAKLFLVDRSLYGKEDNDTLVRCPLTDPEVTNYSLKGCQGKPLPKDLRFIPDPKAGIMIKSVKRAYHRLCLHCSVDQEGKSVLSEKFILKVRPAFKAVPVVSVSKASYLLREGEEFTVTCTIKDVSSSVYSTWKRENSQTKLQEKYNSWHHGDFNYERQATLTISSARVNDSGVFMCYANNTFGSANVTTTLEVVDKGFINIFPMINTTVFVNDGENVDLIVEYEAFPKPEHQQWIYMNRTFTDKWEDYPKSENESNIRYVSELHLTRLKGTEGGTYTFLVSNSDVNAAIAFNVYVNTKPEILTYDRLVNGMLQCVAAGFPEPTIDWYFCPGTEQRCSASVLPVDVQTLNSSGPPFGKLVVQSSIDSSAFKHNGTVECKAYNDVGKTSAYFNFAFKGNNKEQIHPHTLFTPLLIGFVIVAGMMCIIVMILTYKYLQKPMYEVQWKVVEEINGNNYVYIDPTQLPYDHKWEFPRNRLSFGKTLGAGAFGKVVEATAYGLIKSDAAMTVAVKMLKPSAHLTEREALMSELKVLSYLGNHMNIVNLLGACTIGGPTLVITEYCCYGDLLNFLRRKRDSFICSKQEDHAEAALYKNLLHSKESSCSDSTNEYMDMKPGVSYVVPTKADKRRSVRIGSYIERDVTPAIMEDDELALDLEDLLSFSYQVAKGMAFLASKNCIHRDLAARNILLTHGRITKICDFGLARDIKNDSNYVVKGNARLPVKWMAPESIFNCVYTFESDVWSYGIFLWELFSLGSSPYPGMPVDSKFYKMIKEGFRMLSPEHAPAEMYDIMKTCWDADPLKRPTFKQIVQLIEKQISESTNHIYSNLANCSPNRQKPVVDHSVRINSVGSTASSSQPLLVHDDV
# Sequence of MET (human) (P08581 whole entry, looked up): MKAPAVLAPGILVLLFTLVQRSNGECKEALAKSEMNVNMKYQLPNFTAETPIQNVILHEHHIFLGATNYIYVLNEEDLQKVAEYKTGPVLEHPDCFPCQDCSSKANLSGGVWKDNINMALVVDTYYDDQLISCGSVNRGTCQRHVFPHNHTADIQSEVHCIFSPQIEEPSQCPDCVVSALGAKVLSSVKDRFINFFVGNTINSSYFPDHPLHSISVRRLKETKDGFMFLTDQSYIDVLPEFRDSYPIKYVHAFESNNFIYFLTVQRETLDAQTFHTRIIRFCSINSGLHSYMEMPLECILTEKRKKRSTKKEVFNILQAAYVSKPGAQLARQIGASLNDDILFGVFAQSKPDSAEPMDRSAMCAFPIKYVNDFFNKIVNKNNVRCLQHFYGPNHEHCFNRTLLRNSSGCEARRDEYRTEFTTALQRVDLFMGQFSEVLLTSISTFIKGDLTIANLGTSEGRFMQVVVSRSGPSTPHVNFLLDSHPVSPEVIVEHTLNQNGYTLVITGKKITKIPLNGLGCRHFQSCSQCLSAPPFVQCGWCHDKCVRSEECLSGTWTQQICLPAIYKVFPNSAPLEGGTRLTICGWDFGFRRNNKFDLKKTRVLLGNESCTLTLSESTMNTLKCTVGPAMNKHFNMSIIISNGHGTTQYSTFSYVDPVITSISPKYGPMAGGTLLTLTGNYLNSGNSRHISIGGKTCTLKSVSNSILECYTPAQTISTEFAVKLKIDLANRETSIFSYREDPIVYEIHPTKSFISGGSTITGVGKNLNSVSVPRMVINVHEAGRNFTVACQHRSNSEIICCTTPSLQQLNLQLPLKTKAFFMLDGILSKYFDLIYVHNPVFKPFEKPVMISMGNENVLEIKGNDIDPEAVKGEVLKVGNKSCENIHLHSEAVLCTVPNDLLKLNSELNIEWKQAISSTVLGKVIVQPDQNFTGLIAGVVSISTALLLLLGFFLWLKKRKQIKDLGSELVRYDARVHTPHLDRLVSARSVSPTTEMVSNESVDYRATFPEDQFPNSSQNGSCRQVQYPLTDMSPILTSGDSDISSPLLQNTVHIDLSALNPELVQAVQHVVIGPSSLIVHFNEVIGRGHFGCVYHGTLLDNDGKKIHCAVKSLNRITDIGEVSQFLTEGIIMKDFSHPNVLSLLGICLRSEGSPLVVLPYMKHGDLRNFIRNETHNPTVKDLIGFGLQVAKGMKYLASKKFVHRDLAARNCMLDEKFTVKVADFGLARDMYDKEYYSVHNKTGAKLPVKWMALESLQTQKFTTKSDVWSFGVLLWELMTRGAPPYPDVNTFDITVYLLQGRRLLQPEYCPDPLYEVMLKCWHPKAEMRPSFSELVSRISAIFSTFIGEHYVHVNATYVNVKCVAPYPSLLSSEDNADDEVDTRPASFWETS
smiles,measurement,setting,value
CNC(=O)c1cc(Oc2ccc(NC(=O)Nc3ccc(Cl)c(C(F)(F)F)c3)cc2)ccn1,inhibition,[1]; compound 0.02 µM,1%
same,inhibition,[1]; compound 0.2 µM,-3.6%
same,inhibition,[2]; compound 0.02 µM,-18.7%
same,inhibition,[2]; compound 0.2 µM,-0.7%
same,inhibition,[3]; compound 0.02 µM,-2.6%
same,inhibition,[3]; compound 0.2 µM,9.5%
same,inhibition,[4]; compound 0.02 µM,-5%
same,inhibition,[4]; compound 0.2 µM,-3.2%
same,inhibition,[5]; compound 0.02 µM,-1.4%
same,inhibition,[5]; compound 0.2 µM,-1.1%
same,inhibition,[6]; compound 0.02 µM,-6%
same,inhibition,[6]; compound 0.2 µM,-5.2%
same,inhibition,[7]; compound 0.02 µM,-1.5%
same,inhibition,[7]; compound 0.2 µM,5.4%
same,inhibition,[8]; compound 0.02 µM,-1.1%
same,inhibition,[8]; compound 0.2 µM,6.8%
same,inhibition,[9]; compound 0.02 µM,1%
same,inhibition,[9]; compound 0.2 µM,10.6%
same,inhibition,[10]; compound 0.02 µM,4.4%
same,inhibition,[10]; compound 0.2 µM,48.3%
same,inhibition,[11]; compound 0.02 µM,32.9%
same,inhibition,[11]; compound 0.2 µM,89.8%
same,inhibition,[12]; compound 0.02 µM,-1.3%
same,inhibition,[12]; compound 0.2 µM,6.4%
same,inhibition,[13]; compound 0.02 µM,-4%
same,inhibition,[13]; compound 0.2 µM,-7.2%
same,inhibition,[14]; compound 0.02 µM,-6.5%
same,inhibition,[14]; compound 0.2 µM,-4.6%
same,inhibition,[15]; compound 0.02 µM,16.5%
same,inhibition,[15]; compound 0.2 µM,77.8%
same,inhibition,[16]; compound 0.02 µM,-4.1%
same,inhibition,[16]; compound 0.2 µM,6%
same,inhibition,[17]; compound 0.02 µM,-0.7%
same,inhibition,[17]; compound 0.2 µM,-5.1%
same,inhibition,[18]; compound 0.02 µM,-6%
same,inhibition,[18]; compound 0.2 µM,5%
same,inhibition,[19]; compound 0.02 µM,0.1%
same,inhibition,[19]; compound 0.2 µM,10.4%
same,inhibition,[20]; compound 0.02 µM,-3.6%
same,inhibition,[20]; compound 0.2 µM,8.1%
same,inhibition,[21]; compound 0.02 µM,-2.4%
same,inhibition,[21]; compound 0.2 µM,0.9%
same,inhibition,[22]; compound 0.02 µM,3.2%
same,inhibition,[22]; compound 0.2 µM,28%
same,inhibition,[23]; compound 0.02 µM,-12.2%
same,inhibition,[23]; compound 0.2 µM,4.4%
same,inhibition,[24]; compound 0.02 µM,-3.9%
same,inhibition,[24]; compound 0.2 µM,5.6%
same,inhibition,[25]; compound 0.02 µM,-2.7%
same,inhibition,[25]; compound 0.2 µM,-1%
same,inhibition,[26]; compound 0.02 µM,-5%
same,inhibition,[26]; compound 0.2 µM,-5.9%
same,inhibition,[27]; compound 0.02 µM,-0.8%
same,inhibition,[27]; compound 0.2 µM,8.1%
same,inhibition,[28]; compound 0.02 µM,-4.4%
same,inhibition,[28]; compound 0.2 µM,2.8%
same,inhibition,[29]; compound 0.02 µM,2.1%
same,inhibition,[30]; compound 0.02 µM,3.3%
same,inhibition,[30]; compound 0.2 µM,36.1%
same,inhibition,[31]; compound 0.02 µM,-5.7%
same,inhibition,[31]; compound 0.2 µM,0.1%
same,inhibition,[32]; compound 0.02 µM,-8.3%
same,inhibition,[32]; compound 0.2 µM,1.9%
CCN(CC)CCNC(=O)c1c(C)[nH]c(/C=C2\C(=O)Nc3ccc(F)cc32)c1C,inhibition,[1]; compound 0.2 µM,-0.2%
same,inhibition,[1]; compound 4.0 µM,19.2%
same,inhibition,[3]; compound 0.2 µM,-3.6%
same,inhibition,[3]; compound 4.0 µM,15.3%
same,inhibition,[4]; compound 0.2 µM,13.6%
same,inhibition,[4]; compound 4.0 µM,76.8%
same,inhibition,[5]; compound 0.2 µM,28.1%
same,inhibition,[5]; compound 4.0 µM,87.5%
same,inhibition,[6]; compound 0.2 µM,-6.1%
same,inhibition,[6]; compound 4.0 µM,-7.6%
same,inhibition,[7]; compound 0.2 µM,31.1%
same,inhibition,[7]; compound 4.0 µM,87.3%
same,inhibition,[8]; compound 0.2 µM,8.9%
same,inhibition,[8]; compound 4.0 µM,55.4%
same,inhibition,[9]; compound 0.2 µM,78.3%
same,inhibition,[10]; compound 0.2 µM,3.2%
same,inhibition,[10]; compound 4.0 µM,28%
same,inhibition,[11]; compound 0.2 µM,76.7%
same,inhibition,[11]; compound 4.0 µM,100%
same,inhibition,[12]; compound 0.2 µM,7.4%
same,inhibition,[12]; compound 4.0 µM,30.3%
same,inhibition,[13]; compound 0.2 µM,68.5%
same,inhibition,[13]; compound 4.0 µM,84%
same,inhibition,[14]; compound 0.2 µM,-2.3%
same,inhibition,[15]; compound 0.2 µM,43.4%
same,inhibition,[15]; compound 4.0 µM,92.7%
same,inhibition,[16]; compound 4.0 µM,101%
same,inhibition,[17]; compound 0.2 µM,63.7%
same,inhibition,[17]; compound 4.0 µM,97.5%
same,inhibition,[18]; compound 0.2 µM,76%
same,inhibition,[18]; compound 4.0 µM,100%
same,inhibition,[19]; compound 0.2 µM,-0.5%
same,inhibition,[19]; compound 4.0 µM,22.4%
same,inhibition,[20]; compound 0.2 µM,36.5%
same,inhibition,[20]; compound 4.0 µM,94.6%
same,inhibition,[21]; compound 0.2 µM,-1.7%
same,inhibition,[21]; compound 4.0 µM,15.3%
same,inhibition,[23]; compound 0.2 µM,9%
same,inhibition,[23]; compound 4.0 µM,65.3%
same,inhibition,[24]; compound 0.2 µM,47.8%
same,inhibition,[24]; compound 4.0 µM,95.7%
same,inhibition,[25]; compound 0.2 µM,5.2%
same,inhibition,[25]; compound 4.0 µM,49.8%
same,inhibition,[26]; compound 0.2 µM,61.7%
same,inhibition,[27]; compound 0.2 µM,5.5%
same,inhibition,[27]; compound 4.0 µM,-26.5%
same,inhibition,[29]; compound 0.2 µM,2.3%
same,inhibition,[29]; compound 4.0 µM,20.7%
same,inhibition,[30]; compound 0.2 µM,62.1%
same,inhibition,[31]; compound 0.2 µM,4%
same,inhibition,[31]; compound 4.0 µM,63.2%
same,inhibition,[32]; compound 0.2 µM,15.7%
same,inhibition,[32]; compound 4.0 µM,80.8%
same,inhibition,[33]; compound 0.2 µM,71.3%
same,inhibition,[33]; compound 4.0 µM,99.7%
